Test results published in patent EP2386565A2, “Compounds and methods to inhibit or augment an inflammatory response” (Cambridge Enterprise Ltd., priority 1999, dated 2000).
Non-standard residues stand in square brackets, D forms with d. Residues, ends and D or L forms follow the SMILES beside them. No end group written: not given here. *: point of attachment. Biotin = O=C1N[C@H]2[C@H](CS[C@H]2CCCCC(=O)*)N1

Legend:
[1] = Pharmacokinetics of radiolabeled D-ala peptide after IV or SQ bolus; assay type: in vivo, mice
Procedure: When ^3H-D-ala peptide 3(1-12)[MCP-1] (^3H-D-ala was attached to Asp) was given as an intravenous (IV) or subcutaneous (SQ) bolus to mice, peak serum concentrations were reached within 1 hour. This radiolabeled peptide was rapidly excreted (approximately 4 hours), primarily via the kidney. […] Direct comparison of ^3H-D-ala peptide 3(1-12)[MCP-1] (no DARC binding and rapidly cleared) and CRD-L-Leu4Ile11Cys13peptide 3(3-12)[MCP-1]

[2] = system: MCP-1 induced THP-1 migration; assay: THP-1 trans-well migration assay, MCP-1 as chemoattractant; assay type: cell-based, human
Procedure: (§1) To determine whether an agent inhibits a chemokine-induced activity, such as macrophage recruitment, varying amounts of the agent are mixed with cells in the presence of a known chemoattractant. For example, a range of known concentrations of an agent, e.g., a chemokine peptide, is incubated with a defined number (e.g., 10^4 - […]) of human THP-1 monocyte cells in individual wells of the top compartment of a trans-well plate. Chemokine (such as MCP-1, MIP1α, IL8 or SDF-1α), at a concentration known to cause significant migration of THP-1 cells in the trans-well migration assay, is placed in the lower compartment (Figure 1). Cells are then incubated at 37°C for a period sufficient to allow migration, e.g., 4 hours. After incubation, the cells are gently removed from the top of the filter with a pipette, 20 µl of 20 mM EDTA in simple PBS is added into each top well, and incubated for 20 minutes at 4°C. The filter is carefully flushed with media using a gentle flow, and removed. A standard curve consisting of a two-fold dilution series of THP-1 cells (in 29 µl) is prepared to accurately quantify the number of cells that have migrated. Migrated cells are stained with 3 µl of MTT stock dye solution which is added directly into each well (5 mg/ml in RPMI-1640 without phenol red, Sigma Chemical Co.) and incubated at 37°C for 4 hours. The media is carefully aspirated from each well, and the converted dye is solubilized by 20 µl of DMSO. Absorbance of converted dye is measured at a wavelength of 595 nm using an ELISA plate reader. The number of migrated cells in each well is then determined by interpolation of the standard curve (see also Imai et al.,J. Biol. Chem., 272, 15036 (1997)).
Any method suitable for counting cells can be used, for example, counting with a hemocytometer, incubation of the cells with MTT (see above), or FACS analysis. A negative control assay is also performed, using TGF-β or another non-chemokine chemoattractant (e.g., IL1β or TNFα). To assess whether the agent is cytotoxic, the same concentrations of agent are incubated with THP-1 cells. Agents which 1) are not cytotoxic at levels which inhibit migration, 2) are ineffective at inhibiting the negative control-induced migration, and 3) reduce or inhibit chemokine-induced THP-1 migration, are agents which fall within the scope of the invention.
For this assay, THP-1 cells were maintained at a density of 4 × 10^5 cells per ml in RPMI-1640 supplemented with 10% fetal calf serum + 20 µM 2-mercaptoethanol. Chemotaxis was induced in a 96-well disposable chemotaxis chamber fitted with a 5 µM polycarbonate filter (PVP free, ChemoTX, Neuroprobe Inc., Cabin John). […] The framed filter was aligned with the holes in the corner of the filter frame and placed over the wells.
(§2) Five × 10^4 THP-1 cells in 25 µl of RPMI-1640 were added to the upper compartment. Peptides were dissolved in Milli Q water and then serially diluted in culture medium. In most cases, the serially diluted peptides were added to the upper compartment of the chemotaxis chamber. The chamber was incubated at 37°C in a humidified atmosphere of 5% CO2 for 4 hours.
After incubation, the cells were gently removed from the top of the filter with a pipette, 20 µl of 20 mM EDTA in PBS was added into each top well, and the mixture was incubated for 20 minutes at 4°C. The filter was then carefully flushed with media using a gentle flow, and removed. A standard curve was prepared to accurately quantify the number of THP-1 cells that had migrated. The curve was based on a two-fold dilution series of THP-1 cells (top standard 100,000 cells in 29 µl). Cells which had migrated, and in separate wells, the cells in the standards, were stained with 3 µl of MTT stock solution which was added directly into each well (5 mg/ml in RPMI 1640 without phenol red, Sigma Chemical Co.) and incubated at 37°C for 4 hours. The media was carefully aspirated from each well, and the converted dye was solubilized by 20 µl of DMSO. […]

[3] = system: recombinant human chemokine receptors; assay: Binding of biotin-labeled peptide to parental and chemokine receptor expressing HOS and CHO lines (125I-streptavidin); conditions: labeled peptide at 10 µM
Source text: HOS parental cells and CCR1-5 and CXCR4 transformants were obtained from the AIDS Reagent Program and were maintained as described on the supplier data sheet. Selection for the chemokine receptor-expressing plasmid was maintained throughout culture. CHO parental cells and CXCR1 and CXCR2 transformants were obtained form Dr. J. Navarro (Southwestern University, TX, USA) and maintained as described by the supplier under constant selection for expression of the chemokine receptor. All cells were split at about a 1:10 dilution approximately every 4 days, releasing the cells with EDTA solution and reseeding at known density. […]
The binding of labeled peptide 2 and labeled peptide 3 to the parental HOS, parental CHO and 8 chemokine receptor expressing lines was compared. […] The amount of streptavidin molecules added was calculated in each case to be approximately 50-fold in excess over the number of chemokine receptor sites. […]
To determine whether this apparent binding of peptide 2 was cell dependent, or whether it was binding to the plastic (or the some component of the fetal calf serum used during the cell culture), the following experiment was conducted. Three plates were evaluated: One had HOS parental cells, another had CCR5 over-expressors and the third had no cells but was incubated with the FCS-containing culture medium. […]

[4] = system: HIV; assay type: cell-based; conditions: ns = not significant
[5] = system: MIP1α induced THP-1 migration; assay: THP-1 trans-well migration assay, MIP1α as chemoattractant; assay type: cell-based, human; conditions: inhibition of THP-1 migration; n.s./ns = not statistically significant
Procedure: as §1
(§3) For this assay, THP-1 cells were maintained at a density of 4 × 10^5 cells per ml in RPMI-1640 supplemented with 10% fetal calf serum + 20 µM 2-mercaptoethanol. Chemotaxis was induced in a 96-well disposable chemotaxis chamber fitted with a 5 µM polycarbonate filter (PVP free, ChemoTX, Neuroprobe Inc., Cabin John). Twenty-nine µl of chemoattractant (recombinant human chemokine; 50 ng/ml, i.e., 5.9 nM) or control (100 ng/ml TGFβ) was added to the lower compartment of each well. The framed filter was aligned with the holes in the corner of the filter frame and placed over the wells.
as §2
(§4) After incubation, the cells were gently removed from the top of the filter with a pipette, 20 µl of 20 mM EDTA in PBS was added into each top well, and the mixture was incubated for 20 minutes at 4°C. The filter was then carefully flushed with media using a gentle flow, and removed. A standard curve was prepared to accurately quantify the number of THP-1 cells that had migrated. The curve was based on a two-fold dilution series of THP-1 cells (top standard 100,000 cells in 29 µl). Cells which had migrated, and in separate wells, the cells in the standards, were stained with 3 µl of MTT stock solution which was added directly into each well (5 mg/ml in RPMI 1640 without phenol red, Sigma Chemical Co.) and incubated at 37°C for 4 hours. The media was carefully aspirated from each well, and the converted dye was solubilized by 20 µl of DMSO. Absorbance of converted dye was measured at a wavelength of 595 nm using an ELISA plate reader. The number of cells that had migrated in each well was determined by interpolation of the standard curve.
(§5) To investigate the receptor specificity of peptide 3 inhibition, the ED50 was determined for peptide 3(1-12)[MCP-1] (SEQ ID NO:1) inhibition of THP-1 migration induced by chemokines which signal through different receptors than MCP-1 receptors. […]

[6] = system: gp120; conditions: ns = not significant; >100 = ED50 not determined
Procedure: Binding assays. Cells (either Jurkat T-cells or THP-1 cells) were grown in RPMI 1640 medium supplemented with 10% fetal calf serum, 2 mM glutamine, 20 µM β-mercaptoethanol, 100 U/ml penicillin and 100 µg/ml streptomycin and maintained between 2 × 10^5 and 1 × 10^6 cells/ml. Prior to performing a binding assay, cells were spun out (100 × g; 4 minutes) and washed 3 times in ice-cold PBS. A volume of cell suspension in PBS containing 10^6 cells (for Jurkat cells) or 4 × 10^5 cells (for THP-1 cells) was pipetted into each well of a V-bottom 96-well plate (Gibco BRL) and spun out (100 x g; 4 minutes). Triplicate wells were then resuspended in 100 µl binding medium (PBS pH 7.2 containing 0.1% fatty acid-free bovine serum albumin (BSA)) containing labeled peptide in the presence or absence of various concentrations of unlabeled peptide. The plate was then incubated on ice for 90 minutes. Cells were washed 3 times with 380 µl of ice-cold PBS, spinning out the cells each time (100 × g; 4 minutes), and resuspended in 100 µl binding medium containing streptavidin-peroxidase (Amersham International) at 1:1000 dilution. Cells were incubated for a further 15 minutes on ice to allow labeling of any bound biotinylated peptide, then washed 4 times as above. Cells were then incubated with 200 µl TMB substrate (K-Blue, Bionostics) for 20 minutes at room temperature, and the reaction stopped by addition of 50 µl 2 M HCl. The plate was spun (3,000 × g; 3 minutes) and 200 µl of the colored product was transferred to an empty 96-well ELISA plate and the absorbance at 450 nm determined. For each assay, the absorbance of a blank reaction (no peptide added) was subtracted from all readings before further analysis.
Binding experiments with labeled peptide 2 were performed with 10 nM labeled peptide in each reaction.

[7] = system: SDF-1α induced THP-1 migration; assay: THP-1 trans-well migration assay, SDF-1α as chemoattractant; assay type: cell-based, human; conditions: inhibition of THP-1 migration; n.s./ns = not statistically significant
Procedure: as §1, §3, §2, §4, §5

Compound: ^3H-D-ala peptide 3(1-12)[MCP-1]: ^3H-D-ala was attached to Asp (EICAD(3H‑D‑Ala)PKQKWVQ; not fully specified)
- time of excretion, primarily via the kidney [1]: approximately 4 hours
- time to peak serum concentrations [1]: ≤ 1 h

Compound: labeled peptide: N-terminal biotin conjugate of the sequence n'-CLDPKQKWIQC-c' (Biotin-CLDPKQKWIQC; cysteine pairing not given here)
- ED50 for inhibition of MCP-1 induced migration ([2]; MCP-1 at 100 ng/ml in RPMI 1640 + 10% FCS, 4 hours, 5 µm filter): about 4 µM
- binding to parental and chemokine receptor expressing cell lines (in words) [3]: No detectable binding

Compound: CC[C@@H](C)[C@@H](NC(=O)[C@H](NC(=O)[C@@H](CO)NC(=O)[C@@H](CO)NC(=O)[C@@H](CCCCN)NC(=O)[C@@H](CO)NC(=O)[C@H]1CCCN1C(=O)[C@@H](CCCCN)NC(=O)[C@@H](CCC(=O)O)NC(=O)[C@@H](C)NC(=O)[C@H](NC(=O)[C@H](N)CS)C(C)C)[C@H](C)O)C(=O)N[C@H](CCCNC(=N)N)C(=O)N[C@H](CCCNC(=N)N)C(=O)N[C@H](Cc1ccc(O)cc1)C(=O)N[C@H](CO)C(=O)N[C@H](CS)C(=O)O [cvaekpsksstirrysc] (H-[dC][dV][dA][dE][dK][dP][dS][dK][dS][dS][dT][dI][dR][dR][dY][dS][dC]-OH; N-terminus and C-terminus assumed)
- % virus inhibition [4]: ns
- ED50 (µM) versus MIP1α [5]: ns
- gp120 ED-50 (µM) [6]: ns
- ED50 (µM) versus SDF-1α [7]: ns
- ED50 (µM) versus MCP-1 ([2]; inhibition of THP-1 migration, n.s./ns = not statistically significant): ns
